In patent publication US20230139171A1 (SITA Information Networking Computing UK Limited, priority 2019, published 2023):

Assays:
Assay type in all cases: cell-based
human TLR8 = target: T1, human TLR8 (Homo sapiens, UniProt Q9NR97); test: TLR8 inhibition reporter assay (HEK-Blue cells, SEAP reporter, R848 stimulation); details: HEK-Blue cells overexpressing human TLR8, SEAP reporter, R848 15.9 μM; read-out: TLR8 IC50
T1 construct: host or cells: HEK-Blue cells
T1 sequence (Q9NR97 27-1041): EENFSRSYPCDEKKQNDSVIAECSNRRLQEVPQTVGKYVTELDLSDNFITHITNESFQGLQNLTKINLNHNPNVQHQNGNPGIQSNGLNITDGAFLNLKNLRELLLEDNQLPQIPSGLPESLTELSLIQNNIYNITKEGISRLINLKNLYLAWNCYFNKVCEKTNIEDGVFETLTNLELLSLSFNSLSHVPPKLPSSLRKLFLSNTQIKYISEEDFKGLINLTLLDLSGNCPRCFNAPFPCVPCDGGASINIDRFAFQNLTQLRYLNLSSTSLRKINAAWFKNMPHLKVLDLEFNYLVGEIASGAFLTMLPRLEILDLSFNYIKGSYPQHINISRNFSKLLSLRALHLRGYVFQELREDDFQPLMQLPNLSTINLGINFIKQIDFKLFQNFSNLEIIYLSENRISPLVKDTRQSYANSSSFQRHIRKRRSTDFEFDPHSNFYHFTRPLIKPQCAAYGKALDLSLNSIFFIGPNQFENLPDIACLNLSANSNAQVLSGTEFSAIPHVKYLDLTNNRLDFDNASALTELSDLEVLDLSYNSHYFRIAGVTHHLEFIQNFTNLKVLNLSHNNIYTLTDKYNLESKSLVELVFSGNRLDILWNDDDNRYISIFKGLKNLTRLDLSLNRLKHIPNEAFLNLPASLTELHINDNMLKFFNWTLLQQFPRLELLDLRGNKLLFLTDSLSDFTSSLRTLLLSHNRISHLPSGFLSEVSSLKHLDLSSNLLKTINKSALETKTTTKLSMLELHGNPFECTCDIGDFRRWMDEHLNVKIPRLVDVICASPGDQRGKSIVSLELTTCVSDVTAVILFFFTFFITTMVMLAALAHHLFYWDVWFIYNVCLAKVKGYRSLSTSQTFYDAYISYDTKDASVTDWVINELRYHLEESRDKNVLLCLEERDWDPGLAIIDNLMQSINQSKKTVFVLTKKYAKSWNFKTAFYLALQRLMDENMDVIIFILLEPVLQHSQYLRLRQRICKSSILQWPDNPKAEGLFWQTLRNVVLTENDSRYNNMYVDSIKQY
Outline: (§1)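 Human TLR7/8/9 HEK-Blue reporter lines; dose range 0.05 nM–50 μM; 30 min RT preincubation; stimulus gardiquimod 7.5 μM / R848 15.9 μM / ODN2006 5 nM respectively; 22 h, 37 °C; SEAP detected colorimetrically.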

human TLR9 = target: T2, human TLR9 (Homo sapiens, UniProt Q9NR96); test: TLR9 inhibition reporter assay (HEK-Blue cells, SEAP reporter, ODN2006 stimulation); details: HEK-Blue cells overexpressing human TLR9, SEAP reporter, ODN2006 5 nM
T2 construct: host or cells: HEK-Blue cells
T2 sequence (Q9NR96 26-1032): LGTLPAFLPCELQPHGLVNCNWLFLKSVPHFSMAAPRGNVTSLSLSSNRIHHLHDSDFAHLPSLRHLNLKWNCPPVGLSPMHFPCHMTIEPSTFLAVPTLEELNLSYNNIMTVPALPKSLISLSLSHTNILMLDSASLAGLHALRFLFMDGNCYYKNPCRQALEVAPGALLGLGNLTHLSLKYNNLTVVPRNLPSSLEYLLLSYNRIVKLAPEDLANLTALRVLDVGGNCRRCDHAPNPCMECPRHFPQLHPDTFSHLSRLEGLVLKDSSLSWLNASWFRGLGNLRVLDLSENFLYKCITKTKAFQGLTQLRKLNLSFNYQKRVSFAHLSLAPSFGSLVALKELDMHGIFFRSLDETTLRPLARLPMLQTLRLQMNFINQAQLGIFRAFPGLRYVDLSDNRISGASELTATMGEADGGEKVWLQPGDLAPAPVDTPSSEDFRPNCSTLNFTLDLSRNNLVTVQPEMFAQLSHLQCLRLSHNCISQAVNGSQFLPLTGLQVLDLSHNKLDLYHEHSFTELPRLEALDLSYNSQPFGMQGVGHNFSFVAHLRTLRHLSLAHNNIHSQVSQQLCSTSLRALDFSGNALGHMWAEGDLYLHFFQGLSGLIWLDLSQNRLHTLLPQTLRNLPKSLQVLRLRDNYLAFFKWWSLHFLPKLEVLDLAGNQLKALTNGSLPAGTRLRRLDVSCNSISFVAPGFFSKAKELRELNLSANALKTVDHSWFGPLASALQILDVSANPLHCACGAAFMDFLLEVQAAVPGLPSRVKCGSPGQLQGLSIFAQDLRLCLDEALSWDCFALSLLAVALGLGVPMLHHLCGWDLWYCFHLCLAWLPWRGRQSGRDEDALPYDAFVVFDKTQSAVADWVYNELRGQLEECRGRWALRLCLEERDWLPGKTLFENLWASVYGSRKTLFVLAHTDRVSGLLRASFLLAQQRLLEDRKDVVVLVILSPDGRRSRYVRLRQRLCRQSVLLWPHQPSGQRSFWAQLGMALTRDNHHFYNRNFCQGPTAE
Outline: as §1

human TLR7 = target: T3, human TLR7 (Homo sapiens, UniProt Q9NYK1); test: TLR7 inhibition reporter assay (HEK-Blue cells, SEAP reporter, gardiquimod stimulation); details: HEK-Blue cells overexpressing human TLR7, SEAP reporter, gardiquimod 7.5 μM; read-out: TLR7 IC50
T3 construct: host or cells: HEK-Blue cells
T3 sequence (Q9NYK1 27-1049): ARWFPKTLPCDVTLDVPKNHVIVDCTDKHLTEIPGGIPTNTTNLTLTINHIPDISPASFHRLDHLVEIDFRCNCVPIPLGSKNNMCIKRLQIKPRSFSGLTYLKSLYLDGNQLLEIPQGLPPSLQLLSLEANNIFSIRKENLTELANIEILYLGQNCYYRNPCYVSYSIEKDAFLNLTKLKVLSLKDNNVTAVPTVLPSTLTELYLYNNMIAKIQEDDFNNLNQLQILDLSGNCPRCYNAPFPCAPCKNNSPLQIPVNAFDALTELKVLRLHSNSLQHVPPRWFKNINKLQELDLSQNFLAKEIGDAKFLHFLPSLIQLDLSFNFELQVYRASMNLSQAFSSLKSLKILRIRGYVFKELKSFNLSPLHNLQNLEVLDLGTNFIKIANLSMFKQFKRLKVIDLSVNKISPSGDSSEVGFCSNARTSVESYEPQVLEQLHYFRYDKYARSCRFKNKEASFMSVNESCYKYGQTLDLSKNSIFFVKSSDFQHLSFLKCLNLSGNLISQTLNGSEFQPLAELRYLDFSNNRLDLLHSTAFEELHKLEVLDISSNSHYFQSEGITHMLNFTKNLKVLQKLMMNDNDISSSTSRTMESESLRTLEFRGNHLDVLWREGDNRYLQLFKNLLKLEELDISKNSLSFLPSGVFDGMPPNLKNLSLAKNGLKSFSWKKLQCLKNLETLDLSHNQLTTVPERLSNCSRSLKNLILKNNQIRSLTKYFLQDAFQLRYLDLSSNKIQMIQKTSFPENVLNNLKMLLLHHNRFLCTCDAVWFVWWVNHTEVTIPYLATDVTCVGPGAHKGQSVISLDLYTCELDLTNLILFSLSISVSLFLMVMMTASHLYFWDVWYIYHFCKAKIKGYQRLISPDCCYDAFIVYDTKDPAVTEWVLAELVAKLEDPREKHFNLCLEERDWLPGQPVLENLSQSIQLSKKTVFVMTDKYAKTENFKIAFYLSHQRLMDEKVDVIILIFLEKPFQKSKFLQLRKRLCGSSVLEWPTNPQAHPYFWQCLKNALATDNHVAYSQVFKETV
Outline: as §1

Row | SMILES | IC50 (human TLR8) | IC50 (human TLR9) | IC50 (human TLR7)
1 | CCN(C)C1CCC(c2nc3c(C(C)C)c(-c4cn(C)c(=O)c(C)c4C)[nH]c3s2)CC1 (single isomer, unassigned) [Example 247, 5-(2-(4-(ethyl(methyl)amino)cyclohexyl)-6-isopropyl-4H-pyrrolo[3,2-d]thiazol-5-yl)-1,3,4-trimethylpyridin-2(1H)-one] | 4.42 nM | 42500 nM | 5.87 nM
2 | CCN(C)C1CCC(c2nc3c(C(C)C)c(-c4cn(C)c(=O)c(C)c4C)[nH]c3s2)CC1 (single isomer, unassigned) [Example 248, 5-(2-(4-(ethyl(methyl)amino)cyclohexyl)-6-isopropyl-4H-pyrrolo[3,2-d]thiazol-5-yl)-1,3,4-trimethylpyridin-2(1H)-one] | 12 nM | 14000 nM | 8.33 nM
3 | Cc1c(-c2[nH]c3sc(C4CCC(NC5CCOCC5)CC4)nc3c2C(C)C)cn(C)c(=O)c1C (single isomer, unassigned) [Example 249, 5-(6-isopropyl-2-(4-((tetrahydro-2H-pyran-4-yl)amino)cyclohexyl)-4H-pyrrolo[3,2-d]thiazol-5-yl)-1,3,4-trimethylpyridin-2(1H)-one] | 1.19 nM | 19800 nM | 6.34 nM
4 | Cc1c(-c2[nH]c3sc(C4CCC(NC5CCOCC5)CC4)nc3c2C(C)C)cn(C)c(=O)c1C (single isomer, unassigned) [Example 250, 5-(6-isopropyl-2-(4-((tetrahydro-2H-pyran-4-yl)amino)cyclohexyl)-4H-pyrrolo[3,2-d]thiazol-5-yl)-1,3,4-trimethylpyridin-2(1H)-one] | 43.6 nM | 43300 nM | 46.8 nM
5 | Cc1c(-c2[nH]c3sc(C4CCC(NC(C)C)CC4)nc3c2C(C)C)cn(C)c(=O)c1C (single isomer, unassigned) [Example 253, 5-(6-isopropyl-2-(4-(isopropylamino)cyclohexyl)-4H-pyrrolo[3,2-d]thiazol-5-yl)-1,3,4-trimethylpyridin-2(1H)-one] | 3.01 nM | 23000 nM | 4.7 nM
6 | Cc1c(-c2[nH]c3sc(C4CCC(N5CCC5)CC4)nc3c2C(C)C)cn(C)c(=O)c1C (single isomer, unassigned) [Example 255, 5-(2-(4-(azetidin-1-yl)cyclohexyl)-6-isopropyl-4H-pyrrolo[3,2-d]thiazol-5-yl)-1,3,4-trimethylpyridin-2(1H)-one] | 4.88 nM | 15100 nM | 6.86 nM
7 | Cc1c(-c2[nH]c3sc(C4CCC(N5CCC5)CC4)nc3c2C(C)C)cn(C)c(=O)c1C (single isomer, unassigned) [Example 256, 5-(2-(4-(azetidin-1-yl)cyclohexyl)-6-isopropyl-4H-pyrrolo[3,2-d]thiazol-5-yl)-1,3,4-trimethylpyridin-2(1H)-one] | 31.3 nM | 16900 nM | 34.3 nM

The remaining lines, values ahead:

Row | IC50 (human TLR8) | IC50 (human TLR9) | IC50 (human TLR7) | SMILES
8 | 2.68 nM | 45300 nM | 10.6 nM | Cc1c(-c2[nH]c3sc(C4CCC(NCC(C)(C)O)CC4)nc3c2C(C)C)cn(C)c(=O)c1C (single isomer, unassigned) [Example 251, 5-(2-(4-((2-hydroxy-2-methylpropyl)amino)cyclohexyl)-6-isopropyl-4H-pyrrolo[3,2-d]thiazol-5-yl)-1,3,4-trimethylpyridin-2(1H)-one]
9 | 35.8 nM | > 50000 nM | 67.9 nM | Cc1c(-c2[nH]c3sc(C4CCC(NCC(C)(C)O)CC4)nc3c2C(C)C)cn(C)c(=O)c1C (single isomer, unassigned) [Example 252, 5-(2-(4-((2-hydroxy-2-methylpropyl)amino)cyclohexyl)-6-isopropyl-4H-pyrrolo[3,2-d]thiazol-5-yl)-1,3,4-trimethylpyridin-2(1H)-one]
10 | 22.7 nM | 29200 nM | 26.8 nM | Cc1c(-c2[nH]c3sc(C4CCC(NC(C)C)CC4)nc3c2C(C)C)cn(C)c(=O)c1C (single isomer, unassigned) [Example 254, 5-(6-isopropyl-2-(4-(isopropylamino)cyclohexyl)-4H-pyrrolo[3,2-d]thiazol-5-yl)-1,3,4-trimethylpyridin-2(1H)-one]
11 | 0.86 nM | 34900 nM | 13.6 nM | Cc1c(-c2[nH]c3sc(C4CCC(NCC5(S(C)(=O)=O)CC5)CC4)nc3c2C(C)C)cn(C)c(=O)c1C (single isomer, unassigned) [Example 257, 5-(6-isopropyl-2-(4-(((1-(methylsulfonyl)cyclopropyl)methyl)amino)cyclohexyl)-4H-pyrrolo[3,2-d]thiazol-5-yl)-1,3,4-trimethylpyridin-2(1H)-one]
12 | 9.16 nM | 29400 nM | 36.5 nM | Cc1c(-c2[nH]c3sc(C4CCC(NCC5(S(C)(=O)=O)CC5)CC4)nc3c2C(C)C)cn(C)c(=O)c1C (single isomer, unassigned) [Example 258, 5-(6-isopropyl-2-(4-(((1-(methylsulfonyl)cyclopropyl)methyl)amino)cyclohexyl)-4H-pyrrolo[3,2-d]thiazol-5-yl)-1,3,4-trimethylpyridin-2(1H)-one]
